Literature values in patent publication US20240261217A1, “NUTRACEUTICAL GUMMY COMPOSITIONS AND METHOD OF PREVENTING ALCOHOL OVERCONSUMPTION SYMPTOMS” (LiQure, Inc., priority 2023, published 2024).
Entries after “also recorded” stand apart in the source; their conditions may differ.

Key:
[1] = tested on: acetaldehyde dehydrogenase (ALDH)
[2] = recent studies
[3] = in vivo
[4] = tested on: alcohol dehydrogenase (ADH)
intoxicated mice = settings: DHM administered to intoxicated mice
liver = settings: mouse, in vivo

O=C1c2c(O)cc(O)cc2O[C@H](c2cc(O)c(O)c(O)c2)[C@H]1O [DHM, Dihydromyricetin]
effect on activity of acetaldehyde dehydrogenase (ALDH) [1]: enhances the activity of these enzymes | effect on blood alcohol levels [2]: can reduce blood alcohol levels | hangover symptoms compared with people who did not take DHM (during a hangover): fewer headaches, less dizziness, less nausea, and less weakness during a hangover | symptoms when taking DHM after drinking alcohol (studies and anecdotal reports, users): fewer headaches, less nausea, less vomiting and less anxiety | amount found to mitigate symptoms of over-intoxication from alcohol [3]: 100 to 650 mg | effect on activity of alcohol dehydrogenase (ADH) [4]: enhances the activity of these enzymes | anti-hangover benefits (intoxicated mice): provide “anti-hangover” benefits | liver-protection properties (intoxicated mice): possesses liver-protection properties | effect on alcohol-induced liver damage (liver): can also prevent (and help repair) alcohol-induced liver damage; also recorded: protect the liver from alcohol-induced damage
